Assay results as given in article PMC8721871 (Biochemistry, 2021).

How the values were obtained:
Type in all cases: biochemical, Prescottella equi
Conditions in all cases: 50 mM HEPES pH 7.5, 25 °C (Methods: 2.5 mM HEPES)
[1] = system: ReNHase (Fe-type nitrile hydratase); test: spectrophotometric, 3-hydroxybenzamide formation at […] nm
[2] = system: ReNHase (Fe-type nitrile hydratase); test: spectrophotometric, benzamide formation at […] nm
[3] = system: ReNHase (Fe-type nitrile hydratase); test: spectrophotometric, acetamide formation at […] nm
[4] = system: ReNHase (Fe-type nitrile hydratase); test: spectrophotometric, acrylamide formation at […] nm
[5] = system: ReNHase (Fe-type nitrile hydratase); test: spectrophotometric, […],4-dihydroxybenzamide formation at […] nm

In the case of `N#Cc1cccc(O)c1` [3-hydroxybenzonitrile], the Km [1] is reported as 77 ± 17 µM.
In the case of `N#Cc1ccccc1` [benzonitrile], the Km [2] is reported as 13.2 ± 1.4 µM.
For `CC#N` [acetonitrile], the “Km (μM)” value [3] was 25 000 ± 2000 μM.
For `C=CC#N` [acrylonitrile], the “Km (μM)” value [4] was 25 000 ± 11 000 μM.
With `N#Cc1ccc(O)c(O)c1` [3,4-dihydroxybenzonitrile] the Km [5] was 168 ± 21 µM.
